{
  "source": "patent US12275685B2",
  "about": "“Oligo-benzamide analogs and their use in cancer treatment” (Board of Regents, The University of Texas System, priority 2018, dated 2025)",
  "key": {"[1]": {"system": "TNBC cells with LIPA KO", "experiment": "Response of LIPA knockout TNBC cells, CellTiter-Glo", "assay_type": "cell-based", "conditions": "LIPA KO clones", "text": "FIGS. 37A-J: The molecular target of ERX-41 in TNBC is LIPA. […] (FIG. 37B) Knockout clones of LIPA, ACACA, TMEM208, SOAT1 and ARID1A were generated in MDA-MB-231 cells and evaluated for response to ERX-41 using doseresponse curves using CellTiter-Glo assays in vitro. (FIGS. 37C-D) Effect of knockout of LIPA in SUM-159 (FIG. 37C) and MDA-MB436 (FIG. 37D) on dose response curve to ERX-41 using CellTiter-Glo assays in vitro. (FIGS. 37E-F) Dose response curves of SUM-159 parental cells and clones with LIPA KO to thapsigargin (FIG. 37E) and paclitaxel (FIG. 37F). (FIGS. 37G-H) Live cell imaging studies with SYTOX Green to examine ability of 1 μM ERX-41 to induce cell death in parental SUM-159 and SUM-159 clones with LIPA KO, with quantitation (FIG. 37G) and time-lapsed photomicrographs at 0 h and 30 h ((FIG. 37H). (FIGS. 37I-J) SCID mice were implanted with either parental SUM-159 or SUM-159 clones with LIPA KO (n=6, each group) and tumors were allowed to establish (150 mm^3). Following daily intraperitoneal administration of 10 mg/kg ERX-41, tumor sizes were measured and graphed (FIG. 37I), along with mice body weights (FIG. 37J). *p<0.05. **p<0.01; ***p<0.001.\nThe molecular target of ERX-41 in TNBC is LIPA. […] Knockout clones of LIPA, SLC5A3, SMAP2, TMEM208, SOAT1 and ARID1A were generated in multiple TNBC cells and evaluated for response to ERX-41."}, "[2]": {"system": "tumor growth", "experiment": "Animal studies with TK41", "assay_type": "in vivo", "protocol": "FIGS. 4A-4C show the effect of TK41 on estrogen receptor-positive (ER+ve) tumor growth. ZR75 (ER+ve; n=18) xenografts were established in nude mice and treated with either vehicle (circle markers) or 10 mg/kg/day TK41 (square markers) administered as an oral gavage in Captisol®. Comparison of mice body weights is shown in bar graphs (FIG. 4C). *p<0.05; **** p<0.001.\nFIGS. 5A-5C show the effect of TK41 on triple negative breast cancer xenograft tumors. MDA-MB-231 (TNBC; n=10) xenografts were established in nude mice and treated with either vehicle (circle markers) or 10 mg/kg/day TK41 (square markers) administered as an oral gavage in Captisol®. Comparison of mice body weights is shown in bar graphs (FIG. 5A). Photographs of individual tumors at necropsy supports the effect of TK41 on TNBC. *p<0.05; **** p<0.001.\nTNBC is difficult to be treated and currently there are no good drugs available in the market."}, "[3]": {"experiment": "Pharmacokinetic studies of ERX-41", "assay_type": "in vivo, mice", "protocol": "FIGS. 35A-P: ERX-41 is potent against TNBC in vivo. (FIG. 35A) Following establishment of subcutaneous MDA-MB-231 xenograft tumors (200 mm^3), 10 mg/kg single dose ERX-41 was administered either by oral or intraperitoneal route. The tumor was harvested 0, 0, 5, 1, 5, 3, 6 and 24 h after drug administration and the drug levels assayed by LC-MS/MS and graphed. (FIGS. 35B-E) Following establishment of MDA-MB-231 xenografts in mammary fat pad in vivo (100 mm^3 size), daily administration of 10 mg/kg ERX-41 or vehicle control (N=8 each group) was initiated. Tumor volumes were measured using digital calipers and graphed (FIG. 35B). Tumor weights (FIG. 35C), body weights (FIG. 35D) and extirpated tumors (FIG. 35E) at end of study are also shown. (FIGS. 35F-H) Following establishment of D2A1 syngeneic xenografts in mammary fat pad in vivo (100 mm^3 size), daily administration of 10 mg/kg ERX-41 or vehicle control (N=8 each group) was initiated. Tumor volumes were measured using digital calipers and graphed (FIG. 35F) along with tumor weights (FIG. 35G) and body weights (FIG. 35H). (FIGS. 35I-P) Effect of ERX-41 on the growth (FIG. 351, FIG. 35K, FIG. 35M, FIG. 35O) and tumor weights (FIG. 35J, FIG. 35L, FIG. 35N, FIG. 35P) of four distinct TNBC PDXs compared to vehicle. *p<0.05. **p<0.01; ***p<0.001.\nAdditionally, ERX-41 was detectable within 1.5 h in established subcutaneous MDA-MB-231 xenograft tumors after oral or intraperitoneal administration (FIG. 35A). […] ERX-41 decreased tumor growth, as shown by extirpated tumor sizes at the end of study (FIG. 35C and FIG. 35E). […] The inventors validated the activity of ERX-41 in four distinct TNBC PDXs established in the mammary fat pad (FIGS. 35I-P)."}},
  "data": [
    {"smiles": "CC(C)COc1cc(C(=O)Nc2ccc(C(=O)N[C@H]3CC[C@H](C)CC3)cc2OCC(C)C)ccc1NC(=O)c1ccc([N+](=O)[O-])c(OCCO)c1", "note": "[TK41]", "values": [
      {"measurement": "cytotoxic response after knockout of LIPA", "setting": "[1]", "value": "abrogate the cytotoxic response"},
      {"measurement": "side effects or toxicity", "setting": "[2]; animal studies", "value": "no apparent side effects or toxicity"},
      {"measurement": "tumor growth inhibition", "setting": "[2]; animal studies", "value": "outstanding tumor growth inhibition"},
      {"measurement": "oral availability", "setting": "[2]; mouse, in vivo, po", "value": "orally available"},
      {"measurement": "oral bioavailability", "setting": "[3]; mouse, in vivo, po", "value": "orally bioavailable"},
      {"measurement": "time of peak detectable levels in the plasma", "setting": "[3]; oral, 10 mg/kg single dose", "value": 4, "unit": "h"},
      {"measurement": "time until detectable in tumors", "setting": "[3]; subcutaneous MDA-MB-231 xenograft tumors, oral or intraperitoneal", "value": "≤ 1.5", "unit": "h"}
    ]}
  ]
}
